# Like-named read-outs stand apart in the source and are kept apart here.
# How the values were obtained:
# [1] = tested on: subjects with treatment-refractory insomnia; assay: Dipyridamole in combination with melatonin for insomnia; format: in vivo, human
# Experimental: The melatonin dose ranged between 0.25 mg and 10 mg per pill.
# [2] = tested on: subjects with CLL; assay: Treatment of chronic lymphocytic leukemia; format: in vivo, human; settings: Subject 1 (person eleven), 2 mg, one month; from 25,000 (rising by 10%/month)
# [3] = tested on: subject with cancer-related bone pain; assay: Treatment of cancer-related bone pain; format: in vivo, human; settings: person, 2 mg in the early evening
# Experimental: A person was treated with 2 mg taken in the early evening hours. The subject reported resolution of bone pain related to metastatic prostate cancer to the cervical spine within 4 days. The subject was previously dependent on the daily use of opiate pain medications for the past 6 months.
# [4] = tested on: subjects with keratoconjunctivitis sicca; assay: Keratoconjunctivitis sicca treatment with low dose oral dipyridamole; format: in vivo, human; settings: Subject 1 (person thirteen), 2 mg
# Experimental: Each of the three subjects was unresponsive to cyclosporine eye drops or to lubricating drops which are the conventional treatments.
# Subject 1 (person thirteen), Subject 2 (person twelve) and Subject 3 (person twelve) were treated with varying doses (2, 5 and 10 mg) taken before sleep or in the afternoon/evening hours, for initial periods of up to 2 weeks for each dose to establish optimal dosing, and followed for up to 12 months in total.
# [5] = tested on: subjects with erectile dysfunction; assay: Erectile dysfunction treatment with low dose oral dipyridamole; format: in vivo, human
# From the text: Some subjects had either failed or could not tolerate conventional treatments.
# [6] = Solubility of dipyridamole in propylene glycol / water; format: physicochemical
# From the text: (§1) Solubility of a compound is known to increase absorption and efficacy. In other exemplary embodiments of the invention, liquid formulations are provided in gel-caps.
# [7] = tested on: human subjects with intractable insomnia; assay: Insomnia treatment with low dose oral dipyridamole; format: in vivo
# [8] = tested on: subject with recurrent, non-streptococcal, non-specific sore throat; assay: Treatment of non-specific recurrent sore throat; format: in vivo, human; settings: person, 29 kg, 1 mg/day before sleep, followed 11 months
# Experimental: A person was treated with 1 mg taken before sleep and followed for 11 months in total. […] One mg dose was given based on a weight of 29 kg.
# [9] = tested on: subjects with xerostomia; assay: Xerostomia treatment; format: in vivo, human; settings: Subject 1 (person twelve), 2 mg
# Experimental: Subject 1 (person twelve) and Subject 2 (person three) were treated with varying doses (1, 2, 3, 4, 5 and 10 mg) taken in the morning or evening, for periods of 2 weeks for each dose then continued on optimal dose for 15 months in total.
# [10] = cited from earlier work
# [11] = tested on: subject with prostate cancer; assay: Prostate cancer treatment; format: in vivo, human; settings: person four, daily dose of 2 mg, 3 month period; from 19.1
# Experimental: person four was treated with 2 mg taken in the afternoon or evening and followed for 3 months.
# [12] = Storage stability of dipyridamole dissolved in propylene glycol; format: physicochemical; settings: 1 year of storage at room temperature
# From the text: as §1
# [13] = tested on: subjects with frequent viral infections (with upper respiratory symptoms); assay: Prevention and treatment of viral disease; format: in vivo, human
# Experimental: Subject 1 (person eight), Subject 2 (person two), Subject 3, and Subject 4 were treated with varying doses (2, 5 and 10 mg) taken at any time during the day, for periods of 2 weeks for each dose, and thereafter continuously for up to 2 years.
# [14] = tested on: subject with androgenetic alopecia; assay: Treatment of androgenetic alopecia; format: in vivo, human; settings: person, 14 months in total
# Experimental: A person was treated with varying doses (2 and 4 mg) taken in the morning or evening, for periods of 2 weeks for each dose and continued with the optimal dose for 14 months in total.
# [15] = tested on: subjects with chronic rheumatic pain; assay: Treatment of chronic rheumatic or fibromyalgia pain; format: in vivo, human
# Experimental: Subject 1 was treated with 2 mg taken once daily with the first daily dose of oxycodone. Subject 2 (person twelve) was treated with 2 mg or 5 mg taken once daily, in conjunction with oxycodone. Subject 3 (person five) was treated with 2 mg, 5 mg or 10 mg taken once daily with PERCOCET.
# [16] = IV or oral 20-50 mg, followed up to 60 hours
smiles,measurement,setting,value
COc1ccc2[nH]cc(CCNC(C)=O)c2c1 [melatonin],prior response of insomnia to melatonin alone,[1]; six subjects with treatment-refractory insomnia,unresponsive
OCCN(CCO)c1nc(N2CCCCC2)c2nc(N(CCO)CCO)nc(N3CCCCC3)c2n1 [dipyridamole],white blood cell count after treatment,[2],"18,000"
same,time to resolution of bone pain related to metastatic prostate cancer to the cervical spine,[3],≤ 4 days
same,outcome on dry eye symptoms,[4],complete relief of dry eye symptoms
same,optimal dose for complete restoration of erectile function,"[5]; Subject 1, daily at night",2 mg
same,time to restoration of erectile function,"[5]; Subject 3 (person seven), 2 mg",≤ 10 days
same,effect on erectile function at 10 mg daily,"[5]; Subject 3 (person seven), 10 mg daily",the beneficial effect was lost
same,time to resolution of erectile dysfunction,"[5]; Subject 4, 2 mg",≤ 5 days
same,time to resolution of erectile dysfunction,"[5]; Subject 5, 2 mg",≤ 2 weeks
same,effect of 10 mg compared with 5 mg,"[5]; Subject 5, 10 mg",did not produce the same benefit as 5 mg
same,effect when taken with food,"[5]; Subject 5, taken with food",2 mg was not that effective but 5 mg was
same,solubility in propylene glycol,[6]; propylene glycol,≥ 10 mg per ml
same,solubility in propylene glycol,"[6]; pure propylene glycol, dissolved at 5, 10 and 20 mg/mL",surprisingly soluble in propylene glycol
same,solubility in water,[6]; water,difficult to dissolve in water
same,prior response of insomnia to low dose dipyridamole alone,"[1]; six subjects, 1 or 2 mg daily",somewhat responsive
same,effect on insomnia at 10 mg or more (conclusion of example),"[7]; 10 mg or more, 4 subjects",little or no effect
same,benefit on insomnia at 10 mg,"[7]; Subject 1, 10 mg",negligible benefit compared to lower doses
same,optimal dose for ensuring an excellent night's sleep,"[7]; Subject 1, oral, before sleep",2 mg
same,duration of undisturbed sleep,"[7]; Subject 2 (person nine), 2 mg",6-8 hours per night
same,"optimal dose for ensuring an excellent, undisturbed sleep","[7]; Subject 2 (person nine), oral, before sleep",2 mg
same,outcome on recurrent sore throat,[8],complete resolution of recurrent sore throat
same,duration of occasionally recurring symptoms,[9],2 to 3 h
same,reduction in severity of occasionally recurring symptoms,[9]; recurrence once every few weeks,70%
same,peak plasma concentration at steady state,[10]; 75 mg q.i.d.,1.54 µg/mL
same,trough plasma concentration at steady state,[10]; 75 mg q.i.d.,0.269 µg/mL
same,geometric mean peak plasma concentration at steady state,[10]; 75 mg t.d.s.,1.86 µg/mL
same,geometric mean trough plasma concentration at steady state,[10]; 75 mg t.d.s.,0.13 µg/mL
same,peak plasma concentration at steady state,[10]; 100 mg q.i.d.,2.36 µg/mL
same,trough plasma concentration at steady state,[10]; 100 mg q.i.d.,0.432 µg/mL
same,"half-life, first phase of tri-exponential plasma decline","[10]; IV only, 20-50 mg, followed up to 60 hours",5 min
same,"half-life, second phase of tri-exponential plasma decline",[10]; [16],53 min
same,"half-life, third phase of tri-exponential plasma decline",[10]; [16],600 to 720 min
same,time to peak plasma levels,"[10]; humans, following oral administration",1 to 3 h
same,distribution half-life,"[10]; humans, intravenous (IV) administration",about 25 minutes
same,distribution half-life,"[10]; humans, oral administration",about 3 hours
same,dose range in which dose linearity was demonstrated,[10]; single dose administration,25 to 150 mg
same,PSA (Prostate Specific Antigen) after treatment,[11],14
same,potency after storage,[12],maintained its potency
same,incidence of viral infections under treatment,"[13]; Subject 3, 2 mg once daily, previously 5-6 times yearly",1-2 times yearly
same,time to resolution of infection symptoms,"[13]; Subject 3, 2 mg twice daily, previously 7-10 days",1 to 2 days
same,effect of 10 mg dose on viral infection,"[13]; Subject 3, 10 mg, one occasion",failed to deliver the same benefit as the 2 mg dose
same,optimal dose for reducing incidence of viral infections,"[13]; Subject 3, once daily",2 mg
same,recurrence of infections,"[13]; Subject 4, 2 mg daily for 10 months, previously every 3-4 months",without any recurrence of infections
same,time to complete relief of symptoms of severe viral infection,"[13]; Subject 4, 2 mg twice daily, upper respiratory symptoms plus viral conjunctivitis",1 to 2 days
same,"optimal dose for expansion of hairline, thicker hair, decreased hair loss and increased growth of chest and abdominal hair",[14],4 mg
same,outcome on pain related to chronic fibromyalgia,"[15]; Subject 1, 2 mg once daily added to oxycodone",complete relief of pain
same,time to complete weaning off oxycodone while maintaining pain relief,"[15]; Subject 2 (person twelve), 2 mg",≤ 3 months
same,pain relief at 10 mg,"[15]; Subject 2 (person twelve), 10 mg instead of 2 mg",negligible pain relief
same,duration of low dose dipyridamole use after which Percocet was weaned off,"[15]; Subject 3 (person five), 2 mg",2 months
